Experimental data: US8969544B2, “Combined use of PRAME inhibitors and HDAC inhibitors” (priority 2004, dated 2015)

Columns and labels:
[1] = tested on: histone H3 acetylation, p21; assay: immunoblot for acetyl-H3 and p21 in Ras^V12 MEFs treated with HDACi; type: cell-based, mouse; conditions: 1 μM PXD101 for 16 hrs; not prevented by PRAME or RARα expression
Description: Ras^V12 MEFs were also transduced with PRAME or RARα retrovirus and treated with 1 μM PXD101 for 16 hrs. Extracts were immunoblotted for acetyl-H3, p21, PRAME, RARα and CDK4 (control). […] Cells were lysed in Ripa buffer (50 mM Tris pH 8.0, 150 mM NaCl, 1% NP-40, 0.5% deoxycholic acid, and 0.1% SDS) supplemented with protease inhibitors (Complete; Roche) and […] PMSF and proteins were separated on 10-14% SDS-PAGE gels. Proteins were transferred to polyvinylidine difluoride membranes (Immobilon P, Millipore) and Western blots were probed with the indicated antibodies. For TAP (co-)immunoprecipitations cells were lysed in ELB buffer (0.25 M NaCl, 0.1% NP-40, 50 mM HEPES pH 7.3) supplemented with protease inhibitors and PMSF. Lysates were incubated with IgG-coated sepharose beads (Amersham) to immunoprecipitate TAP and TAP-PRAME (Rigaut et al 1999), indicated as anti-TAP, or with protein A beads and normal mouse serum (mock IP) for 2 hrs, washed, and separated on SDS-PAGE gels.

[2] = tested on: RAS^V12-MEFs; assay: growth of RAS^V12-MEFs in the presence of HDAC inhibitor; type: cell-based, mouse
Description: In order to address the molecular basis for the selective growth-inhibitory activity of HDACi on cancer cells, we performed a functional genetic screen to identify genes that confer resistance to a small-molecule HDACi, named PXD101 (Plumb et al, 2003). Oncogenic RAS^V12-transformed mouse embryonic fibroblasts (RAS^V12-MEFs) were infected with a high complexity retroviral cDNA expression library derived from human K562 erythroleukemia cells and exposed to 1 μM PXD101 for three to […]. HDACi-resistant colonies appeared at low frequency only after infection with cDNA expression library. Integrated proviruses were mobilized from PXD101-resistant colonies by Moloney virus super-infection as described (Jacobs et al, 2000). After second round selection, cDNA inserts were recovered by PCR and identified by DNA sequence analysis. Using this approach, we identified full-length cDNAs encoding the human melanoma tumour antigen PRAME (PReferentially expressed Antigen in MElanoma (Ikeda et al, 1997) and Retinoic Acid Receptor alpha (RARα) as cDNAs that allow continuous proliferation in the presence of 1 μM PXD101. PRAME also rescues these cells from growth arrest by a related HDACi, Trichostatin A at a concentration of 0.1 μM.
The observed effect of PRAME on RAR signalling could result from a physical interaction of PRAME with RAR or from more indirect effects. […]

[3] = tested on: RARβ; assay: immunoblot for endogenous RARβ in F9 cells treated with RA; type: cell-based, mouse; conditions: 10^−7 M RA; parental and mock-transfected F9 cells, not PRAME-transfected
Description: (§1) Cells were lysed in Ripa buffer (50 mM Tris pH 8.0, 150 mM NaCl, 1% NP-40, 0.5% deoxycholic acid, and 0.1% SDS) supplemented with protease inhibitors (Complete; Roche) and […] PMSF and proteins were separated on 10-14% SDS-PAGE gels. Proteins were transferred to polyvinylidine difluoride membranes (Immobilon P, Millipore) and Western blots were probed with the indicated antibodies. For TAP (co-)immunoprecipitations cells were lysed in ELB buffer (0.25 M NaCl, 0.1% NP-40, 50 mM HEPES pH 7.3) supplemented with protease inhibitors and PMSF. Lysates were incubated with IgG-coated sepharose beads (Amersham) to immunoprecipitate TAP and TAP-PRAME (Rigaut et al 1999), indicated as anti-TAP, or with protein A beads and normal mouse serum (mock IP) for 2 hrs, washed, and separated on SDS-PAGE gels.

[4] = tested on: A375-PRAMEKD cells; assay: human melanoma xenograft model, A375-PRAMEKD tumours; type: in vivo, mouse; conditions: 5 mg/kg RA p.o. daily, nude mice, PRAMEKD melanomas, vs vehicle
Description: To examine the role of PRAME in RA-responsiveness in vivo, we used a human melanoma xenograft model. Nude mice were subcutaneously transplanted with parental A375 into one flank and A375-PRAMEKD cells in the opposite flank and the mice were treated p.o. daily with either 5 mg/kg RA or vehicle only, while tumor volumes were measured weekly.
Female 5-6 week old athymic BALB-C nude mice (nu/nu) were s.c. implanted with 1×10^6 cells bilaterally into the axial regions. Each mouse received A375-PRAMEKD cells in its right flank and control A375 cells in its left flank. Mice were randomized into treatment groups and treated with 5 mg/kg RA or vehicle (ethanol in sunflower oil) p.o. with a 20-gauge intragastric feeding tube daily. Tumor diameter was measured with calipers weekly. The pRS vector which was used to generate A375-PRAMEKD cells is a self-inactivating retroviral vector, to prevent re-activation and spreading of virus (Brummelkamp et al., 2002a; Brummelkamp et al., 2002b). The experiment was performed twice, with n=20 and n=10 mice and results were similar in both experiments.

[5] = tested on: A375-PRAME^KD cells; assay: proliferation of A375-PRAME^KD cells, 3T3 protocol; type: cell-based, human; conditions: 15 days, medium with 5 μM RA
Description: (§2) To assess the effect of PRAME knockdown on cell proliferation, we generated stable derivatives of A375 melanoma having shRNA-mediated knockdown of PRAME expression (A375-PRAME^KD). These A375-PRAME^KD cells were cultured for 15 days according to the 3T3 protocol.
(§3) F9 cells were stably transfected with PRAME or empty vector and resistant cells were differentiated in 10^−7 M RA for 5 days. A375 cells were stably transfected with pRS-PRAME or empty vector and stable clones were cultured according to the 3T3 protocol. Medium with RA was refreshed every 24-48 hrs.

[6] = tested on: p21 promoter; assay: p21 promoter-luciferase reporter in B16 melanoma cells; type: cell-based, mouse; conditions: B16 melanoma cells treated with RA; suppressed by PRAME
Description: as §2
Transfections were carried out using the Lipofectamine reagent (Invitrogen), except for Ras^V12 MEFs and Phoenix cells, which were transfected using calcium phosphate precipitation. RA-based reporter assays were done in DMEM with charcoal-stripped FCS (Hyclone). In reporter assays 0.5 μg of reporter-luciferase, 1 ng CMV-renilla, and 3 μg of the indicated DNA were transfected. RA, PXD101, or TSA was added 24 hrs after transfection and assays were performed 48 hrs after transfection. In knock-down experiments, RA or PXD101 was added 72 hrs after transfection and assays were performed 96 hrs after transfection. Luciferase activities shown represent ratios between luciferase and renilla internal control values.

[7] = tested on: F9 mouse embryo carcinoma cells; assay: RA-induced apoptosis in F9 cells (cleaved caspase 3); type: cell-based; conditions: 10^−7 M RA; vector controls, not PRAME transfectants
From the text: RA induces proliferation arrest, differentiation and apoptosis in many cell types. We therefore asked if PRAME expression affected the RA-induced differentiation of F9 mouse embryo carcinoma cells towards parietal endoderm (Strickland and Mandavi, 1978). F9 cells were stably transfected with PRAME or control vector and individual colonies were selected. In the to absence of RA, the morphology of all transfected cells was the some as that of parental F9 cells. However, F9 cells stably transfected with PRAME […] and treated with 10^−7 M RA were resistant to RA-induced morphological differentiation and growth arrest. Apart from differentiating, a fraction of F9 cells treated with RA dies by apoptosis (Atencia et al, 1994). […] We conclude that PRAME expression confers resistance to RA-induced proliferation arrest, differentiation and apoptosis.
as §3

[8] = tested on: RARβ and p21; assay: immunoblot of RA target genes RARβ and p21 in A375-PRAME^KD cells; type: cell-based, human; conditions: 5 μM RA
Description: as §1

Question: With `O=C(/C=C/c1cccc(S(=O)(=O)Nc2ccccc2)c1)NO` [PXD101, N-hydroxy-3-(3-phenylsulfamoyl-phenyl)-acrylamide] as the compound, how does the “histone H3 acetylation” value [1] read?
Answer: increase

Question: And the p21 expression [1]?
Answer: induction

Question: And the cell growth ([2]; 1 μM PXD101)?
Answer: growth arrest

Question: Which “endogenous RARβ protein expression” value [3] does the source give for `CC1=C(/C=C/C(C)=C/C=C/C(C)=C/C(=O)O)C(C)(C)CCC1` [RA, All-trans-retinoic acid] here?
Answer: induced

Question: What about the tumor growth [4] of the same compound?
Answer: severely retarded

Question: And the proliferation rates [5]?
Answer: significantly decreased proliferation rates, especially when cultured in the presence of RA

Question: What about the “p21 promoter-luciferase reporter activity” value [6] of the same compound?
Answer: activated

Question: What about the “cleaved caspase 3 (apoptosis)” value [7] of the same compound?
Answer: apparent in vector controls

Question: And the “induction of RA target genes RARβ and p21” value [8]?
Answer: enhanced

Question: How did the cell growth ([2]; Trichostatin A 0.1 μM) turn out when `CC(/C=C/C(=O)NO)=C\[C@@H](C)C(=O)c1ccc(N(C)C)cc1` [Trichostatin A] was run?
Answer: growth arrest
